Experimental data taken from US8962641B2, “Pyrimidine-substituted pyrrolidine derivatives, pharmaceutical compositions and uses thereof” (Boehringer Ingelheim International GmbH, priority 2013, dated 2015).

molecular target: human ACC2 (Homo sapiens (Human), UniProt O00763); assay: ACC2 assay (spectrophotometric 384 well assay, NADH-linked kinetic method); assay type: biochemical; details: hACC2 construct lacking 128 N-terminal amino acids; coupled lactate dehydrogenase/pyruvate kinase reaction, 340 nm, 25° C.
Sequence (O00763 129-2458): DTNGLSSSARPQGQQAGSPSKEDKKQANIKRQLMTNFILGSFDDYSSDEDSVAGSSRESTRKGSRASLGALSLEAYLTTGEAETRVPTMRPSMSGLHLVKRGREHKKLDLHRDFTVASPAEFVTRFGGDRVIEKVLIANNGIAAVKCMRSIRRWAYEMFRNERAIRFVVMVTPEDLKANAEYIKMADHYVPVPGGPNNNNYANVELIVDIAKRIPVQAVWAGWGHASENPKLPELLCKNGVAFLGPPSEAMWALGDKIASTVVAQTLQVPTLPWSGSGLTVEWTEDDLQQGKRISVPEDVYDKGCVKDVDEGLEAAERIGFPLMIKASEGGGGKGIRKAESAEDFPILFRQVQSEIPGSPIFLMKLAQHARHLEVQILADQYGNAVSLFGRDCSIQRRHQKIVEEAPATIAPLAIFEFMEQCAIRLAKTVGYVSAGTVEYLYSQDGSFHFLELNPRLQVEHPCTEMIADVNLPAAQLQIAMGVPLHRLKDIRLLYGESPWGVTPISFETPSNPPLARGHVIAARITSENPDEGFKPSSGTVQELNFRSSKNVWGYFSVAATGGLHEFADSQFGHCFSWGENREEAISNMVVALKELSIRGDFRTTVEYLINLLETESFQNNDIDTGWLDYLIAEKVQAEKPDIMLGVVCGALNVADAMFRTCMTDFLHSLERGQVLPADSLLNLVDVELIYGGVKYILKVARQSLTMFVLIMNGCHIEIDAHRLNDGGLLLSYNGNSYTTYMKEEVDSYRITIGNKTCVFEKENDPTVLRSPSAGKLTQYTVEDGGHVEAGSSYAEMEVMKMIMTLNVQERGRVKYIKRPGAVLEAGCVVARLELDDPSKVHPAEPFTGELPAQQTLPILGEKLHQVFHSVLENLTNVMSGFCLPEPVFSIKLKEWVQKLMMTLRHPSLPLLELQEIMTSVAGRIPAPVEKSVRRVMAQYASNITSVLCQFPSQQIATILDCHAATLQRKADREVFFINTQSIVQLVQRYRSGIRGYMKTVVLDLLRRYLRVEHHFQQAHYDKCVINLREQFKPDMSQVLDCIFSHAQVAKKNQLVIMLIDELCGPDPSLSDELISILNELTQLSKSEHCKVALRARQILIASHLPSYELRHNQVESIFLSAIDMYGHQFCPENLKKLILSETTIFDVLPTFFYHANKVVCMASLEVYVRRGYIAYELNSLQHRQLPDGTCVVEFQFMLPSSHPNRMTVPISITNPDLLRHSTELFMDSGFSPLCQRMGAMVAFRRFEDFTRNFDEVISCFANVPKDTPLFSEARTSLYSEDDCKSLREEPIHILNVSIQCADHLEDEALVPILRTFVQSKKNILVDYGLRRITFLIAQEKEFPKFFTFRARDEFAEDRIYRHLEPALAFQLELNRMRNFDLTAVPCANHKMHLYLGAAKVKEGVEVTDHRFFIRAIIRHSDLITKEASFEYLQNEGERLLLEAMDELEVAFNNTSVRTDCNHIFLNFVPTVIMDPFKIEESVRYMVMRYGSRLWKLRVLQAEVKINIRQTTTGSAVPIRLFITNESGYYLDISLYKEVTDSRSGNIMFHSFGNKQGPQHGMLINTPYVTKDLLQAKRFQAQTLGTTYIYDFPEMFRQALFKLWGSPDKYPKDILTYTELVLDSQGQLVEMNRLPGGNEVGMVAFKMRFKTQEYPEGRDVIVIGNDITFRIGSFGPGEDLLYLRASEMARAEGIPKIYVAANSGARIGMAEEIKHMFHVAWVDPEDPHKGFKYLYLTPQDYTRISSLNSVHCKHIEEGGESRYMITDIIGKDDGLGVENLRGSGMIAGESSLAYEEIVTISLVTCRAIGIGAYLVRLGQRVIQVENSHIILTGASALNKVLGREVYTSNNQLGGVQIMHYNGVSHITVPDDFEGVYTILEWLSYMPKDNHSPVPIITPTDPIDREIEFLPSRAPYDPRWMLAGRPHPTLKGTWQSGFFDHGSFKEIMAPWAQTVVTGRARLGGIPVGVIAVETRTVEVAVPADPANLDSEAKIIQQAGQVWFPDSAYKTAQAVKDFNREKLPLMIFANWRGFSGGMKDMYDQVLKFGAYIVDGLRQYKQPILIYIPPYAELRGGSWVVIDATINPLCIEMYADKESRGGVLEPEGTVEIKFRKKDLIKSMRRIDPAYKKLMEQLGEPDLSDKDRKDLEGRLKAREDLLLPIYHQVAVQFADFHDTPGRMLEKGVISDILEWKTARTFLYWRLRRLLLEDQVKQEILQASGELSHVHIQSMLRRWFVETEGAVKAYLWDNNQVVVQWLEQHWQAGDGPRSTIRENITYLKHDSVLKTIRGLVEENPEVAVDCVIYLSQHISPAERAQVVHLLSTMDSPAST
Outline: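 Baculovirus/insect-cell human ACC2, anion-exchange purified; ADP formation coupled to pyruvate kinase/lactate dehydrogenase, NADH loss followed at 340 nm, 25° C, 15 min. Final 200 μM NADH and acetyl-CoA, 500 uM ATP; vehicle and no-acetyl-CoA wells set 100% and 0%.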

IC50 [nM] | SMILES
265 | CC(=O)N[C@@H](C)c1ccc(O[C@@H]2CCN(c3nc(N4CCOCC4)ncc3Cl)C2)cc1 [Example 8.96]
79 | C[C@H](NC(=O)c1cncs1)c1ccc(O[C@@H]2CCN(c3ccnc(N(C)CC(F)F)n3)C2)cc1 [Example 8.97]
212 | C[C@H](NC(=O)c1cncs1)c1ccc(O[C@@H]2CCN(c3ccnc(N(C)CCC#N)n3)C2)cc1 [Example 8.98]
120 | C[C@H](NC(=O)c1cncs1)c1ccc(O[C@@H]2CCN(c3nc(N(C)C)ncc3F)C2)cc1 [Example 8.99]
180 | CCN(CC)c1ncnc(N2CC[C@@H](Oc3ccc([C@H](C)NC(C)=O)cc3)C2)c1C [Example 8.100]
376 | CCN(C)c1ncnc(N2CC[C@@H](Oc3ccc([C@H](C)NC(C)=O)cc3)C2)c1C [Example 8.101]
88 | CCN(C)c1ncnc(N2CC[C@@H](Oc3ccc([C@H](C)NC(C)=O)cc3)C2)c1Cl [Example 8.102]
120 | CC(=O)N[C@@H](C)c1ccc(O[C@@H]2CCN(c3ncnc(N4CCCC4)c3Cl)C2)cc1 [Example 8.103]
59 | CCN(CC)c1ncnc(N2CC[C@@H](Oc3ccc([C@H](C)NC(C)=O)cc3)C2)c1Cl [Example 8.104]
160 | CCN(CCOC)c1nccc(N2CC[C@@H](Oc3ccc([C@H](C)NC(C)=O)cc3)C2)n1 [Example 8.106]
522 | CC(=O)N[C@@H](C)c1ccc(O[C@@H]2CCN(c3ccnc(N(CCC#N)C4CC4)n3)C2)cc1 [Example 8.107]
375 | CC(=O)N[C@@H](C)c1ccc(O[C@@H]2CCN(c3ccnc(N(CCC#N)C4CCCC4)n3)C2)cc1 [Example 8.108]
245 | CCCN(CCC#N)c1nccc(N2CC[C@@H](Oc3ccc([C@H](C)NC(C)=O)cc3)C2)n1 [Example 8.109]
234 | CC(=O)N[C@@H](C)c1ccc(O[C@@H]2CCN(c3ccnc(N(CCC#N)CC4CCCO4)n3)C2)cc1 (some centres unmarked) [Example 8.110]
116 | CC(=O)N[C@@H](C)c1ccc(O[C@@H]2CCN(c3ncnc(N4CC(F)(F)C4)c3Cl)C2)cc1 [Example 8.111]
53 | CC(=O)N[C@@H](C)c1ccc(O[C@@H]2CCN(c3ncnc(N4CCCCC4)c3Cl)C2)cc1 [Example 8.112]
40 | CC(=O)N[C@@H](C)c1ccc(O[C@@H]2CCN(c3ncnc(N4CCC5(CC5)C4)c3Cl)C2)cc1 [Example 8.113]
80 | CC(=O)N[C@@H](C)c1ccc(O[C@@H]2CCN(c3ncnc(N4CCC(F)(F)C4)c3Cl)C2)cc1 [Example 8.114]
166 | CC(=O)N[C@@H](C)c1ccc(O[C@@H]2CCN(c3ncnc(N(C)CC(F)F)c3Cl)C2)cc1 [Example 8.115]
470 | CCN(CCC#N)c1ncnc(N2CC[C@@H](Oc3ccc([C@H](C)NC(C)=O)cc3)C2)c1Cl [Example 8.116]
485 | CC(=O)N[C@@H](C)c1ccc(O[C@@H]2CCN(c3ncnc(N4CCOCC4)c3Cl)C2)cc1 [Example 8.117]
2460 | CCNc1ncnc(N2CC[C@@H](Oc3ccc([C@H](C)NC(C)=O)cc3)C2)c1F [Example 8.118]
209 | CC(=O)N[C@@H](C)c1ccc(O[C@@H]2CCN(c3ncnc(NC4CCCC4)c3F)C2)cc1 [Example 8.119]
413 | CCCNc1ncnc(N2CC[C@@H](Oc3ccc([C@H](C)NC(C)=O)cc3)C2)c1F [Example 8.120]
169 | CC(=O)N[C@@H](C)c1ccc(O[C@@H]2CCN(c3ncnc(NCC4CC4)c3F)C2)cc1 [Example 8.121]
547 | CC(=O)N[C@@H](C)c1ccc(O[C@@H]2CCN(c3ncnc(N(C)CC4CCOC4)c3F)C2)cc1 (some centres unmarked) [Example 8.122]
111 | CC(=O)N[C@@H](C)c1ccc(O[C@@H]2CCN(c3nc(N(C)C4CCCC4)ncc3Cl)C2)cc1 [Example 8.124]
90 | CC(=O)N[C@@H](C)c1ccc(O[C@@H]2CCN(c3ncnc(N(C)C4CCCC4)c3F)C2)cc1 [Example 8.125]
58 | CC(=O)N[C@@H](C)c1ccc(O[C@@H]2CCN(c3nc(N(C)CC4CC4)ncc3Cl)C2)cc1 [Example 8.126]
